From patent US20240425500A1 (priority 2021, published 2024)

test system: Pythium ultimum; assay: Pythium ultimum / liquid culture (seedling damping off); format: cell-based; details: Globisporangium ultimum, liquid culture in PDB, 24 °C, 2-3 days after application, read-out: control of Pythium ultimum (inhibition of growth, photometric) compared to untreated control
Protocol: Pythium ultimum/Liquid Culture (Seedling Damping Off):
Mycelia fragments and oospores of a newly grown liquid culture of the fungus are directly mixed into nutrient broth (PDB potato dextrose broth). After placing a (DMSO) solution of test compound into a microtiter plate (96-well format), the nutrient broth containing the fungal mycelia/spore mixture is added. The test plates are incubated at 24° C. and the inhibition of growth is determined photometrically 2-3 days after application.

SMILES	inhibition at 20 ppm [%]
COC(=O)Nc1ccc(-c2cnc3ccc(C(=O)N(C)c4ccnc(C)c4)cn23)cc1 [Compound 12, methyl N-[4-[6-[methyl-(2-methyl-4-pyridyl)carbamoyl]imidazo [1,2-a]pyridin-3-yl]phenyl]carbamate]	≥ 80
COC(=O)Nc1ccc(-c2cnc3ccc(C(=O)N(C)c4ccc(C)c(C)c4)cn23)cc1 [Compound 13, methyl N-[4-[6-[(3,4-dimethylphenyl)-methyl-carbamoyl]imidazo[1,2-a]pyridin-3-yl]phenyl]carbamate]	≥ 80
COC(=O)Nc1ccc(-c2cnc3ccc(C(=O)N(C)c4ccc(C)cc4)cn23)cc1 [Compound 16, methyl N-[4-[6-[methyl (p-tolyl)carbamoyl]imidazo [1,2-a]pyridin-3-yl]phenyl]carbamate]	≥ 80
COC(=O)Nc1ccc(-c2cnc3cc(C)c(C(=O)N(C)c4ccc(Cl)cc4)cn23)cc1 [Compound 18, methyl N-[4-[6-[(4-chlorophenyl)-methyl-carbamoyl]-7-methyl-imidazo[1,2-a]pyridin-3-yl]phenyl]carbamate]	≥ 80
COC(=O)Nc1ccc(-c2cnc3ccc(C(=O)N(C)c4ccncc4)cn23)cc1 [Compound 24, methyl N-[4-[6-[methyl(4-pyridyl)carbamoyl]imidazo [1,2-a]pyridin-3-yl]phenyl]carbamate]	≥ 80
COC(=O)Nc1ccc(-c2cnc3ccc(C(=O)N(CC4CC4)c4ccc(Cl)cc4)cn23)cc1 [Compound 28, methyl N-[4-[6-[(4-chlorophenyl)-(cyclopropylmethyl)carbamoyl]imidazo[1,2-a]pyridin-3-yl]phenyl]carbamate]	≥ 80
COC(=O)Nc1ccc(-c2cnc3ccc(C(=O)N(CC(F)(F)F)c4ccc(Cl)cc4)cn23)cc1 [Compound 29, methyl N-[4-[6-[(4-chlorophenyl)-(2,2,2-trifluoroethyl)carbamoyl]imidazo [1,2-a]pyridin-3-yl]phenyl]carbamate]	≥ 80
CCCN(C(=O)c1ccc2ncc(-c3ccc(NC(=O)OC)cc3)n2c1)c1ccc(Cl)cc1 [Compound 30, methyl N-[4-[6-[(4-chlorophenyl)-propyl-carbamoyl]imidazo[1,2-a]pyridin-3-yl]phenyl]carbamate]	≥ 80
C#CCN(C(=O)c1ccc2ncc(-c3ccc(NC(=O)OC)cc3)n2c1)c1ccc(Cl)cc1 [Compound 33, methyl N-[4-[6-[(4-chlorophenyl)-prop-2-ynyl-carbamoyl]imidazo[1,2-a]pyridin-3-yl]phenyl]carbamate]	≥ 80
COC(=O)Nc1ccc(-c2cnc3cc(Br)c(C(=O)N(C)c4ccc(Cl)cc4)cn23)cc1 [Compound 34, methyl N-[4-[7-bromo-6-[(4-chlorophenyl)-methyl-carbamoyl]imidazo[1,2-a]pyridin-3-yl]phenyl]carbamate]	≥ 80
COC(=O)Nc1ccc(-c2cnc3cc(OC)c(C(=O)N(C)c4ccc(Cl)cc4)cn23)cc1 [Compound 39, methyl N-[4-[6-[(4-chlorophenyl)-methyl-carbamoyl]-7-methoxy-imidazo[1,2-a]pyridin-3-yl]phenyl]carbamate]	≥ 80
COC(=O)Nc1ccc(-c2cnc3cc(C#N)c(C(=O)N(C)c4ccc(Cl)cc4)cn23)cc1 [Compound 41, methyl N-[4-[6-[(4-chlorophenyl)-methyl-carbamoyl]-7-cyano-imidazo[1,2-a]pyridin-3-yl]phenyl]carbamate]	≥ 80
COC(=O)Nc1ccc(-c2cnc3cc(F)c(C(=O)N(C)c4ccc(Cl)cc4)cn23)cc1 [Compound 42, methyl N-[4-[6-[(4-chlorophenyl)-methyl-carbamoyl]-7-fluoro-imidazo[1,2-a]pyridin-3-yl]phenyl]carbamate]	≥ 80
COC(=O)Nc1ccc(-c2cnc3ccc(C(=O)N(C)c4cccc(C)c4)cn23)cn1 [Compound 54, methyl N-[5-[6-[methyl(m-tolyl)carbamoyl]imidazo [1,2-a]pyridin-3-yl]-2-pyridyl]carbamate]	≥ 80
COC(=O)Nc1ccc(-c2cnc3ccc(C(=O)N(C)c4cc(C)cc(OC)c4)cn23)cn1 [Compound 59, methyl N-[5-[6-[(3-methoxy-5-methyl-phenyl)-methyl-carbamoyl]imidazo[1,2-a]pyridin-3-yl]-2-pyridyl]carbamate]	≥ 80
COC(=O)Nc1ccc(-c2cnc3ccc(C(=O)N(C)c4ccc(F)nc4)cn23)cn1 [Compound 60, methyl N-[5-[6-[(6-fluoro-3-pyridyl)-methyl-carbamoyl]imidazo[1,2-a]pyridin-3-yl]-2-pyridyl]carbamate]	≥ 80
COC(=O)Nc1ccc(-c2cnc3ccc(C(=O)N(C)c4ccc(C)c(C)c4)cn23)cn1 [Compound 65, methyl N-[5-[6-[(3,4-dimethylphenyl)-methyl-carbamoyl]imidazo[1,2-a]pyridin-3-yl]-2-pyridyl]carbamate]	≥ 80

SMILES	inhibition at 20 ppm [%]
COC(=O)Nc1ccc(-c2cnc3ccc(C(=O)N(C)c4ccc(OC(F)F)cc4)cn23)cn1 [Compound 66, methyl N-[5-[6-[[4-(difluoromethoxy)phenyl]-methyl-carbamoyl]imidazo[1,2-a]pyridin-3-yl]-2-pyridyl]carbamate]	≥ 80
COC(=O)Nc1ccc(-c2cnc3ccc(C(=O)N(C)c4ccc(Br)cc4)cn23)cn1 [Compound 68, methyl N-[5-[6-[(4-bromophenyl)-methyl-carbamoyl]imidazo[1,2-a]pyridin-3-yl]-2-pyridyl]carbamate]	≥ 80
COC(=O)Nc1ccc(-c2cnc3ccc(C(=O)N(C)c4cccc(Br)c4)cn23)cn1 [Compound 69, methyl N-[5-[6-[(3-bromophenyl)-methyl-carbamoyl]imidazo[1,2-a]pyridin-3-yl]-2-pyridyl]carbamate]	≥ 80
COC(=O)Nc1ccc(-c2cnc3ccc(C(=O)N(C)c4cccc(C5CC5)c4)cn23)cn1 [Compound 72, methyl N-[5-[6-[(3-cyclopropylphenyl)-methyl-carbamoyl]imidazo[1,2-a]pyridin-3-yl]-2-pyridyl]carbamate]	≥ 80
COC(=O)CN(C(=O)c1ccc2ncc(-c3ccc(NC(=O)OC)nc3)n2c1)c1ccc(F)c(OC)c1 [Compound 91, methyl 2-(4-fluoro-3-methoxy-N-[3-[6-(methoxycarbonyl-amino)-3-pyridyl]imidazo[1,2-a]pyridine-6-carbonyl]anilino)acetate]	≥ 80
COC(=O)Nc1ccc(-c2cnc3ccc(C(=O)N(C)c4ccc(C(C)=O)cc4)cn23)cn1 [Compound 104, methyl N-[5-[6-[(4-acetylphenyl)-methyl-carbamoyl]imidazo[1,2-a]pyridin-3-yl]-2-pyridyl]carbamate]	≥ 80
COC(=O)Nc1ccc(-c2cnc3ccc(C(=O)N(CC#N)c4ccccc4)cn23)cn1 [Compound 108, methyl N-[5-[6-[cyanomethyl(phenyl)carbamoyl]imidazo[1,2-a]pyridin-3-yl]-2-pyridyl] carbamate]	≥ 80
COC(=O)Nc1ccc(-c2cnc3ccc(C(=O)N(CCO)c4ccccc4)cn23)cn1 [Compound 112, methyl N-[5-[6-[2-hydroxyethyl(phenyl)carbamoyl]imidazo [1,2-a]pyridin-3-yl]-2-pyridyl]carbamate]	≥ 80
COC(=O)Nc1ccc(-c2cnc3ccc(C(=O)N(C)c4ccc(Cl)c(C(F)(F)F)c4)cn23)cn1 [Compound 121, methyl N-[5-[6-[[4-chloro-3-(trifluoromethyl)phenyl]-methyl-carbamoyl]imidazo[1,2-a]pyridin-3-yl]-2-pyridyl]carbamate]	≥ 80
CCOC(=O)c1cccc(N(CC)C(=O)c2ccc3ncc(-c4ccc(NC(=O)OC)nc4)n3c2)c1 [Compound 122, ethyl 3-[ethyl-[3-[6-(methoxycarbonyl-amino)-3-pyridyl]imidazo[1,2-a]pyridine-6-carbonyl]amino]benzoate]	≥ 80
COC(=O)Nc1ccc(-c2cnc3ccc(C(=O)N(CCC#N)c4ccc(C)cc4)cn23)cn1 [Compound 125, methyl N-[5-[6-[2-cyanoethyl(p-tolyl)carbamoyl]imidazo[1,2-a]pyridin-3-yl]-2-pyridyl]carbamate]	≥ 80
CCN(C(=O)c1ccc2ncc(-c3ccc(NC(=O)OC)nc3)n2c1)c1ccc(C)c(F)c1 [Compound 127, methyl N-[5-[6-[ethyl-(3-fluoro-4-methyl-phenyl)carbamoyl]imidazo [1,2-a]pyridin-3-yl]-2-pyridyl]carbamate]	≥ 80
CCN(C(=O)c1ccc2ncc(-c3ccc(NC(=O)OC)nc3)n2c1)c1cccc(C#N)c1 [Compound 141, methyl N-[5-[6-[(3-cyanophenyl)-ethyl-carbamoyl]imidazo[1,2-a]pyridin-3-yl]-2-pyridyl]carbamate]	≥ 80
COC(=O)Nc1ccc(-c2cnc3ccc(C(=O)N(CC#N)c4ccc(C)cc4)cn23)cn1 [Compound 143, methyl N-[5-[6-[cyanomethyl(p-tolyl)carbamoyl]imidazo [1,2-a]pyridin-3-yl]-2-pyridyl]carbamate]	≥ 80
CCN(C(=O)c1ccc2ncc(-c3ccc(NC(=O)OC)nc3)n2c1)c1cccc(F)c1 [Compound 145, methyl N-[5-[6-[ethyl-(3-fluorophenyl)carbamoyl]imidazo[1,2-a]pyridin-3-yl]-2-pyridyl]carbamate]	≥ 80
COC(=O)Nc1ccc(-c2cnc3ccc(C(=O)N(c4ccccc4)C4CC4)cn23)cn1 [Compound 147, methyl N-[5-[6-[cyclopropyl(phenyl)carbamoyl]imidazo [1,2-a]pyridin-3-yl]-2-pyridyl]carbamate]	≥ 80
COC(=O)Nc1ccc(-c2cnc3ccc(C(=O)N(CCC#N)c4ccc(Cl)c(C)c4)cn23)cn1 [Compound 148, methyl N-[5-[6-[(4-chloro-3-methyl-phenyl)-(2-cyanoethyl)carbamoyl]imidazo[1,2-a]pyridin-3-yl]-2-pyridyl]carbamate]	≥ 80
